According to ChEMBL document CHEMBL3045709, “Increasing resistance against Phytophthora citrophthora in tangelo Nova fruits by modulating polymethoxyflavones levels” (J Agric Food Chem, 2002):
Activity calls are given as the source filed them. No cut-off for these calls is given here.

What was measured:
Citrus [1] = assay: Induction of resistance against Phytophthora citrophthora in Citrus (tangelo Nova) fruits assessed as increase of polymethoxyflavones levels at 20 to 250 ppm up to 160 days; type: functional
Citrus [2] = assay: Induction of resistance against Phytophthora citrophthora in Citrus (tangelo Nova) fruits assessed as increase of polymethoxyflavones levels at 20 to 250 ppm after 7 days; type: functional
[3] = tested on: Phytophthora citrophthora; assay: Antifungal activity against Phytophthora citrophthora assessed as inhibition of radical growth at 0.1 to 1 g/L up to 200 hr; type: functional, organism-based
[4] = tested on: Phytophthora citrophthora; assay: Antifungal activity against Phytophthora citrophthora after 100 hr; type: functional, organism-based
[5] = tested on: Phytophthora citrophthora; assay: Antifungal activity against Phytophthora citrophthora in tangelo Nova fruits assessed as inhibition of fungal growth at 100 ppm after 3 to 5 days; type: functional; conditions: read-out: GI
[6] = tested on: Phytophthora citrophthora; assay: Antifungal activity against Phytophthora citrophthora assessed as inhibition of radical growth at 0.05 to 0.4 g/L up to 200 hr; type: functional, organism-based
[7] = tested on: Phytophthora citrophthora; assay: Antifungal activity against Phytophthora citrophthora assessed as inhibition of radical growth at 0.2 to 0.6 g/L up to 200 hr; type: functional, organism-based
Penicillium digitatum = assay: Antifungal activity against Penicillium digitatum; type: functional, organism-based

Row | SMILES | IC50 [4] [mM] | IC50 (Penicillium digitatum) [mM] | Activity (Citrus [1]) | Activity (Citrus [2]) [%] | growth inhibition (GI) [3] | inhibition of growth at 100 ppm [5] [%] | growth inhibition (GI) [6] | growth inhibition (GI) [7]
1 | COc1ccc(-c2oc3c(OC)c(OC)c(OC)c(OC)c3c(=O)c2OC)cc1OC [3,5,6,7,8,3',4'-HEPTAMETHOXYFLAVONE] | 1.04 |  | 43% | 29 | Active |  |  | 
2 | c1ccc(CNc2ncnc3[nH]cnc23)cc1 [6-BENZYLAMINOPURINE] |  |  |  |  |  | 60 |  | 
3 | COc1ccc(-c2cc(=O)c3c(OC)c(OC)c(OC)c(OC)c3o2)cc1 [TANGERETIN] | 1.72 | 6.45 | Active | 12 | Active |  |  | 

Further molecules by falling IC50 [4], results first:

Row | IC50 [4] [mM] | IC50 (Penicillium digitatum) [mM] | SMILES | Activity (Citrus [1]) | Activity (Citrus [2]) [%] | growth inhibition (GI) [3] | inhibition of growth at 100 ppm [5] [%] | growth inhibition (GI) [6] | growth inhibition (GI) [7]
4 | 0.91 |  | COc1ccc(-c2cc(=O)c3c(OC)c(OC)c(OC)cc3o2)cc1OC [SINENSETIN] | Active | 20 |  |  |  | Active
5 | 0.59 |  | COc1ccc(-c2cc(=O)c3c(OC)c(OC)c(OC)c(OC)c3o2)cc1OC [NOBILETIN] | Active | 20 |  |  | Active | 
